From US9120798B2, “Amino-heteroaryl 7-hydroxy-spiropiperidine indolinyl antagonists of P2Y1 receptor” (priority 2012, dated 2015)
Where two headings read alike, the source gives them in different places.

Columns and labels:
[1] = target: cloned human P2Y1 receptors (Homo sapiens (Human), UniProt P47900); assay: Binding Assay B: Scintillation Proximity Assay (SPA) for P2Y1 binding
Experimental: Binding Assay B—Scintillation Proximity Assay (SPA) for P2Y1 Binding
A SPA membrane binding assay was used to identify inhibitors of [^33P] […] Binding reactions were performed in 384-well OptiPlates (PerkinElmer Life Sciences, Cat #6007299) in a volume of 50 μL containing ˜15 fmol of P2Y1 receptor (1.7 μg of total protein), 0.3 nM [^33P] […] Reactions were allowed to proceed to completion at room temperature for 1 hour followed by centrifugation of the plate for 5 min. About 40 μL of the aqueous solution was aspirated. Plates were sealed and the [^33P]

[2] = system: human platelet rich plasma (PRP); assay: ADP induced platelet aggregation assay; assay type: cell-based; settings: 5 min, read-out: PA IC50 (μM) @ 10 μM ADP
Experimental: ADP Induced Platelet Aggregation Assay
The ability of P2Y1 antagonists covered in the present invention to inhibit platelet aggregation induced by 10 μM ADP was tested using human platelet rich plasma (PRP) as described in Platelet Protocols: Research and Clinical Laboratory Procedures (White, M. M. et al., Academic Press (1999)). Human blood was collected in 30 μM (final concentration in blood) argatroban (GSK) as the anticoagulant at a ratio of 1 ml per 9 ml of blood. The PRP was isolated by centrifugation at 170 g for 12 minutes. The platelet poor plasma (PPP) was used as the blank for optical aggregometry. Compounds of the present invention in DMSO solution was preincubated with 250 μl PRP at 37° C. for 1 minute with stirring speed of 1000 rpm. Aggregation was initiated by addition of 2.5 μl of 1 mM ADP (Chrono-log, Havertown, Pa.) for a final ADP concentration of 10 uM. Platelet aggregation was monitored using Optical Aggregometer (Chrono-log, Havertown, Pa.) and the area under the curve (AUC) at 5 minute was measured. IC50 was calculated using vehicle control as 0% inhibition.
The platelet aggregation assay measures the in vitro antiplatelet activity of a compound in platelet rich plasma. The assay is sensitive to plasma protein binding, and is believed to be a better predictor of actual in vivo activity.

[3] = SPA, 0.3 nM [33P] 2MeS-ADP, Cheng-Prusoff, read-out: P2Y1 Ki (nM) using binding assay B

Sequence of cloned human P2Y1 receptors (P47900 whole entry): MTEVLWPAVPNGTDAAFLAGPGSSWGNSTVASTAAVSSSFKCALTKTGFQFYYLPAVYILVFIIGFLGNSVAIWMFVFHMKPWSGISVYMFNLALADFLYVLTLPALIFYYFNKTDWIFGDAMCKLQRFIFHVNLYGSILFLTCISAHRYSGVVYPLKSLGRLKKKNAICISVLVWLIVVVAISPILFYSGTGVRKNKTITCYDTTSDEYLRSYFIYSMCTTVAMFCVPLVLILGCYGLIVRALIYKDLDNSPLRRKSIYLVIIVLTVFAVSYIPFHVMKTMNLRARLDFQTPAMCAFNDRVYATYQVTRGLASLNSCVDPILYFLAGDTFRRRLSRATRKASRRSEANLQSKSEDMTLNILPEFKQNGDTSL

`CCOC(=O)c1sc(Nc2ccccc2N2CC3(CCN(CC(C)(C)C)CC3)c3c(Cl)ccc(O)c32)nc1C(F)(F)F` [Example 40, Ethyl 2-(2-(4-chloro-7-hydroxy-1′-neopentylspiro[indoline-3,4′-piperidine]-1-yl)phenylamino)-4-(trifluoromethyl)thiazole-5-carboxylate] gave a Ki [1] of 19 nM and an IC50 [2] of 1 µM.
With `CC(C)(C)CN1CCC2(CC1)CN(c1ccccc1Nc1cc(-c3ccccc3)on1)c1c(O)ccc(Cl)c12` [Example 38, 4-Chloro-1′-neopentyl-1-(2-(5-phenylisoxazol-3-ylamino)phenyl)spiro[indoline-3,4′-piperidin]-7-ol] the Ki [1, 3] was 66 nM and the IC50 [2] was 9 µM.
`CC(C)(C)CN1CCC2(CC1)CN(c1ccccc1Nc1nnc(-c3ccccn3)s1)c1c(O)ccc(Cl)c12` [Example 28, 4-chloro-1′-neopentyl-1-(2-((5-(pyridin-2-yl)-1,3,4-thiadiazol-2-yl)amino)phenyl)-spiro[indoline-3,4′-piperidin]-7-ol] was tested, and the Ki [1] was 6.8 nM and the IC50 [2] was 5.8 µM.
`CC(C)(C)CN1CCC2(CC1)CN(c1ccccc1Nc1nnc(-c3ccc(OC(F)(F)F)cc3)s1)c1c(O)c(F)cc(Cl)c12` [Example 32, 4-chloro-6-fluoro-1′-neopentyl-1-(2-((5-(4-(trifluoromethoxy)-phenyl)-1,3,4-thiadiazol-2-yl)amino)phenyl)spiro[indoline-3,4′-piperidin]-7-ol] showed a Ki [1] of 69 nM and an IC50 [2] of 15.6 µM.
`CC(C)(C)CN1CCC2(CC1)CN(c1ccccc1Nc1nnc(-c3cccc(Cl)c3)s1)c1c(O)ccc(Cl)c12` [Example 20, 4-chloro-1-(2-((5-(3-chloro-phenyl)-1,3,4-thiadiazol-2-yl)amino)phenyl)-1′-neopentylspiro[indoline-3,4′-piperidin]-7-ol] was tested, and the Ki [1, 3] was 16 nM and the IC50 [2] was 2.6 µM.
Molecule `CC(C)CN1CCc2nc(Nc3ccccc3N3CC4(CCN(CC(C)(C)C)CC4)c4c(Cl)ccc(O)c43)sc2C1` [Example 41, 4-Chloro-1-(2-(5-isobutyl-4,5,6,7-tetrahydrothiazolo[5,4-c]pyridin-2-ylamino)phenyl)-1′-neopentylspiro[indoline-3,4′-piperidin]-7-ol] has a Ki [1] of 21 nM and an IC50 [2] of 20.3 µM.
Molecule `COC(=O)c1ccc(O)c2c1C1(CCN(CC(C)(C)C)CC1)CN2c1ccccc1Nc1nnc(-c2ccc(C(C)(C)C)cc2)s1` [Example 44, Methyl 1-(2-(5-(4-tert-butylphenyl)-1,3,4-thiadiazol-2-ylamino)phenyl)-7-hydroxy-1′-neopentylspiro[indoline-3,4′-piperidine]-4-carboxylate] has a Ki [1, 3] of 8 nM and an IC50 [2] of 0.8 µM.
`CC(C)(C)CN1CCC2(CC1)CN(c1ccccc1Nc1nnc(-c3ccc(C(C)(C)C)cc3)s1)c1c(O)ccc(C#N)c12` [Example 46, 1-(2-(5-(4-tert-Butylphenyl)-1,3,4-thiadiazol-2-ylamino)phenyl)-7-hydroxy-1′-neopentylspiro[indoline-3,4′-piperidine]-4-carbonitrile] showed a Ki [1] of 10 nM and an IC50 [2] of 1.1 µM.
`CC(C)(C)CN1CCC2(CC1)CN(c1ccccc1Nc1nc(C(C)(C)C)c(C#N)s1)c1c(O)ccc(Cl)c12` [Example 39, 4-tert-Butyl-2-(2-(4-chloro-7-hydroxy-1′-neopentylspiro[indoline-3,4′-piperidine]-1-yl)phenylamino)thiazole-5-carbonitrile] showed a Ki [1] of 9 nM and an IC50 [2] of 4.9 µM.
Work on `Cc1cccc(-c2nnc(Nc3ccccc3N3CC4(CCN(CC(C)(C)C)CC4)c4c(Cl)ccc(O)c43)s2)c1` [Example 22, 4-chloro-1′-neopentyl-1-(2-((5-(m-tolyl)-1,3,4-thiadiazol-2-yl)amino)phenyl)spiro[indoline-3,4′-piperidin]-7-ol] yielded a Ki [1] of 22 nM and an IC50 [2] of 4 µM.
With `CC(C)(C)CN1CCC2(CC1)CN(c1ccccc1Nc1nnc(-c3ccc(F)cc3)s1)c1c(O)ccc(C(F)(F)F)c12` [Example 4, 1-(2-(5-(4-Fluorophenyl)-1,3,4-thiadiazol-2-ylamino)phenyl)-1′-neopentyl-4-(trifluoromethyl)spiro[indoline-3,4′-piperidin]-7-ol] the Ki [1] was 15 nM and the IC50 [2] was 2.2 µM.
`CC(C)(C)CN1CCC2(CC1)CN(c1ccccc1Nc1nnc(-c3cc(Cl)cc(Cl)c3)s1)c1c(O)ccc(Cl)c12` [Example 23, 4-chloro-1-(2-((5-(3,5-dichloro-phenyl)-1,3,4-thiadiazol-2-yl)amino)phenyl)-1′-neopentylspiro[indoline-3,4′-piperidin]-7-ol] was tested, and the Ki [1] was 19 nM and the IC50 [2] was 3.4 µM.
Work on `CC(C)(C)CN1CCC2(CC1)CN(c1ccccc1Nc1nnc(-c3cc(F)ccc3Cl)s1)c1c(O)ccc(Cl)c12` [Example 24, 4-chloro-1-(2-((5-(2-chloro-5-fluorophenyl)-1,3,4-thiadiazol-2-yl)amino)phenyl)-1′-neopentylspiro[indoline-3,4′-piperidin]-7-ol] yielded a Ki [1] of 28 nM and an IC50 [2] of 4.5 µM.
For `CC(C)(C)CN1CCC2(CC1)CN(c1ccccc1Nc1nnc(-c3ccc(OC(F)(F)F)cc3)s1)c1c(O)ccc(Cl)c12` [Example 26, 4-chloro-1′-neopentyl-1-(2-((5-(4-(trifluoromethoxy)phenyl)-1,3,4-thiadiazol-2-yl)amino)phenyl)spiro[indoline-3,4′-piperidin]-7-ol], the Ki [1, 3] was 13 nM and the IC50 [2] was 0.9 µM.
With `CC(C)(C)CN1CCC2(CC1)CN(c1ccccc1Nc1nnc(-c3ccc(C(F)(F)F)cn3)s1)c1c(O)ccc(Cl)c12` [Example 8, 4-Chloro-1′-neopentyl-1-(2-(5-(5-(trifluoromethyl)pyridin-2-yl)-1,3,4-thiadiazol-2-ylamino)phenyl)spiro[indoline-3,4′-piperidin]-7-ol] the Ki [1] was 7 nM and the IC50 [2] was 1.5 µM.
`CC(C)(C)CN1CCC2(CC1)CN(c1ccccc1Nc1nnc(-c3cccc(F)c3)s1)c1c(O)ccc(Cl)c12` [Example 29, 4-chloro-1-(2-((5-(3-fluoro-phenyl)-1,3,4-thiadiazol-2-yl)amino)phenyl)-1′-neopentylspiro[indoline-3,4′-piperidin]-7-ol] was tested, and the Ki [1] was 23 nM and the IC50 [2] was 2.4 µM.
`CC(C)(C)CN1CCC2(CC1)CN(c1ccccc1Nc1cc(-c3ccc(C(F)(F)F)cc3)on1)c1c(O)ccc(Cl)c12` [Example 37, 4-Chloro-1′-neopentyl-1-(2-(5-(4-(trifluoromethyl)phenyl)isoxazol-3-ylamino)phenyl)spiro[indoline-3,4′-piperidin]-7-ol] gave a Ki [1] of 60 nM and an IC50 [2] of 9.9 µM.
For `CC(C)(C)CN1CCC2(CC1)CN(c1ccccc1Nc1nnc(-c3ccc(Cl)cc3)s1)c1c(O)ccc(F)c12` [Example 31, 1-(2-((5-(4-chlorophenyl)-1,3,4-thiadiazol-2-yl)amino)phenyl)-4-fluoro-1′-neopentylspiro-[indoline-3,4′-piperidin]-7-ol], the Ki [1] was 6 nM and the IC50 [2] was 4.2 µM.
`CC(C)(C)CN1CCC2(CC1)CN(c1ccccc1Nc1nnc(-c3cccc(C(F)(F)F)c3)s1)c1c(O)ccc(Cl)c12` [Example 27, 4-chloro-1′-neopentyl-1-(2-((5-(3-(trifluoromethyl)phenyl)-1,3,4-thiadiazol-2-yl)amino)-phenyl)spiro[indoline-3,4′-piperidin]-7-ol] gave a Ki [1] of 24 nM and an IC50 [2] of 3.2 µM.
Molecule `CC(C)(C)CN1CCC2(CC1)CN(c1ccccc1Nc1nnc(-c3ccncc3)s1)c1c(O)ccc(Cl)c12` [Example 10, 4-Chloro-1′-neopentyl-1-(2-((5-(pyridin-4-yl)-1,3,4-thiadiazol-2-yl)amino)phenyl)spiro[indoline-3,4′-piperidin]-7-ol] has a Ki [1] of 40.2 nM and an IC50 [2] of 11.4 µM.
With `CC(C)(C)CN1CCC2(CC1)CN(c1ccccc1Nc1nnc(-c3ccc(C(F)(F)F)cc3)s1)c1c(O)ccc(C#N)c12` [Example 45, 7-Hydroxy-1′-neopentyl-1-(2-(5-(4-(trifluoromethyl)phenyl)-1,3,4-thiadiazol-2-ylamino)phenyl)spiro[indoline-3,4′-piperidine]-4-carbonitrile] the Ki [1] was 3 nM and the IC50 [2] was 3.5 µM.
Molecule `CC(C)(C)CN1CCC2(CC1)CN(c1ccccc1Nc1nnc(-c3ccccc3)s1)c1c(O)ccc(C(F)(F)F)c12` [Example 1, 1′-Neopentyl-1-(2-(5-phenyl-1,3,4-thiadiazol-2-ylamino)phenyl)-4-(trifluoromethyl)spiro[indoline-3,4′-piperidin]-7-ol] has a Ki [1] of 10 nM and an IC50 [2] of 1 µM.
In the case of `CC(C)(C)CN1CCC2(CC1)CN(c1ccccc1Nc1nc(-c3ccccc3)ns1)c1c(O)ccc(Cl)c12` [Example 35, 4-Chloro-1′-neopentyl-1-(2-(3-phenyl-1,2,4-thiadiazol-5-ylamino)phenyl)spiro[indoline-3,4′-piperidin]-7-ol], the Ki [1, 3] is reported as 6 nM and the IC50 [2] is reported as 5.4 µM.
`CC(C)(C)CN1CCC2(CC1)CN(c1ccccc1Nc1nnc(-c3cnc4ccccc4n3)s1)c1c(O)ccc(Cl)c12` [Example 16, 4-chloro-1′-neopentyl-1-(2-((5-(quinoxalin-2-yl)-1,3,4-thiadiazol-2-yl)amino)phenyl)spiro[indoline-3,4′-piperidin]-7-ol] was tested, and the Ki [1] was 66 nM and the IC50 [2] was 17.7 µM.
